{"source": "patent US20250127937A1", "about": "“FAP INHIBITOR” (UNIVERSITÄT HEIDELBERG, priority 2018, published 2025)", "key": {"[1]": {"test": "Preliminary dosimetry estimate in patients", "format": "in vivo, human"}, "[2]": {"tested_on": "HT-1080-FAP tumor xenografts", "test": "Dynamic small-animal PET, two-tissue compartment model, HT-1080-FAP xenografts", "format": "in vivo, mouse", "details": "68Ga-FAPI-02, HT-1080-FAP", "procedure": "(§1) For in vivo experiments, 8 week old BALB/c nu/nu mice (Charles River) were subcutaneously inoculated into the right trunk with 5×10^6 with HT-1080-FAP, Capan-2 or SK-LMS-1 cells, respectively. When the size of the tumor reached approximately 1 cm^3, the radiolabeled compound was injected via the tail vein (˜10 MBq for small-animal PET imaging; ˜1 MBq for organ distribution). PET imaging was performed up to 140 min after intravenous injection of 1 MBq of Ga-68 labeled compound per mouse using the Inveon PET small-animal PET scanner (Siemens). Images were reconstructed iteratively using the 3D-OSEM+MAP method and were converted to standardized uptake value (SUV) images. Quantification was done using a ROI technique and expressed as SUV mean. For organ distribution of Lu-177 labeled compound (approx. […] per mouse), the animals (n=3 for each time point) were sacrificed after indicated time points (from 30 min to 24 h). The distributed radioactivity was measured in all dissected organs and in blood using a γ-counter (Cobra Autogamma, Packard). The values are expressed as percentage of injected dose per gram of tissue (% ID/g).\nFor pharmakokinetic modeling the transport constant K1 and the rate constants k2-k4 were calculated using a two-tissue compartment model implemented in the PMOD software, taking into account the vascular fraction (vB), which is associated with the volume of blood exchanging with tissue in a VOI. The rate constants that describe the compartmental fluxes include k1 (binding to the receptor), k2 (detachment) as well as k3 (internalization) and k4 (efflux) in the tumor tissue. In this model the fractional volume of distribution (DV=K1/k2) is the proportion of the region of interest in which […] is distributed."}, "[3]": {"tested_on": "HT-1080-FAP cells", "test": "Radioligand binding and internalization in HT-1080-FAP cells", "format": "cell-based, human", "procedure": "Radioligand binding studies were performed using HT-1080-FAP cells. The radiolabeled compound was added to the cell culture and incubated for different time intervals ranging from 10 min to 24 h. Competition experiments were performed by simultaneous exposure to unlabeled (10^−5 M to 10^−9M) and radiolabeled compound for 60 min. For efflux experiments, radioactive medium was removed after incubation for 60 min and replaced by non-radioactive medium for time intervals ranging from 1 to 24 h. For internalization experiments, surface bound activity was removed by incubating the cells with 1 M glycine-HCl buffer for 10 min. The radioactivity was measured using a γ-counter, normalized to 1 mio cells and calculated as percentage of applied dose (% ID).\nFor radioligand binding studies, cells were seeded in 6-well plates and cultivated for 48 h to a final confluence of approx. 80-90% (1.2-2 mio cells/well). The medium was replaced by 1 mL fresh medium without fetal calf serum. The radiolabeled compound was added to the cell culture and incubated for different time intervals ranging from 10 min to 24 h. Competition experiments were performed by simultaneous exposure to unlabeled (10^−5 M to 10^−9 M) and radiolabeled compound for 60 min. For efflux experiments, radioactive medium was removed after incubation for 60 min and replaced by non-radioactive medium for time intervals ranging from 1 to 24 h. In all experiments, the cells were washed with 1 mL phosphate-buffered saline pH 7.4 for 2 times and subsequently lysed with 1.4 ml lysis buffer (0.3 M NaOH, 0.2% SDS). Radioactivity was determined in a γ-counter (Cobra II, Packard), normalized to 1 mio cells and calculated as percentage of the applied dose (% ID). Each experiment was performed 3 times, and 3 repetitions per independent experiment were acquired.\nFor internalization experiments the cells were incubated with the radiolabeled compound for 60 min at 37° C. and 4° C. Cellular uptake was terminated by removing medium from the cells and washing 2 times with 1 mL PBS. Subsequently, cells were incubated with 1 mL of glycine-HCl (1 Min PBS, pH 2.2) for 10 min at room temperature to remove the surface bound activity. The cells were washed with 2 mL of ice-cold PBS and lysed with 1.4 mL of lysis buffer to determine the internalized fraction. For the cells incubated at 4° C., all washing and elution steps were carried out using ice-cold buffers. The radioactivity was measured using a γ-counter, normalized to 1 mio cells and calculated as percentage of applied dose (% ID)."}, "[4]": {"tested_on": "HT-1080-FAP tumor xenografts", "test": "Organ distribution ex vivo in HT-1080-FAP tumor bearing nude mice", "set-up": "species or system mouse", "procedure": "as §1"}, "[5]": {"tested_on": "Capan-2 tumor xenografts", "test": "Organ distribution ex vivo in Capan-2 tumor bearing nude mice", "set-up": "species or system mouse", "details": "Lu-177 labeled, 1 h after i.v., Capan-2, mean ± SD, n = 3", "procedure": "as §1"}, "[6]": {"tested_on": "HT-1080-FAP cells", "test": "Efflux experiments in HT-1080-FAP cells", "format": "cell-based, human", "details": "after 24 h in compound-free medium"}, "[7]": {"details": "Lu-177 labeled, 1 h after i.v., HT-1080-FAP, mean ± SD, n = 3"}}}
{"smiles": "N#C[C@@H]1CCCN1C(=O)CNC(=O)c1ccnc2ccc(OCCCN3CCN(C(=O)CN4CCN(CC(=O)O)CCN(CC(=O)O)CCN(CC(=O)O)CC4)CC3)cc12", "note": "[FAPI-02]", "values": [{"measurement": "equivalent dose of an exam", "setting": "[1]; 200 MBq Ga-68", "value": "3-4 mSv"}, {"measurement": "effective dose", "setting": "[1]; calculated with IDAC1/ICRP60", "value": "1.82E-02", "unit": "mSv/MBq"}, {"measurement": "effective dose", "setting": "[1]; calculated with IDAC2/ICRP103", "value": "1.79E-02", "unit": "mSv/MBq"}, {"measurement": "effective dose", "setting": "[1]; calculated with OLINDA", "value": "1.80E-02", "unit": "mSv/MBq"}, {"measurement": "Flux", "setting": "[2]; + comp.", "value": 0.01, "unit": "ml/ccm/min"}, {"measurement": "Vs (ratio of specific binding concentration to total parent at equilibrium)", "setting": "[2]; + comp.", "value": 0.18, "unit": "ml/ccm"}, {"measurement": "Vt (total distribution volume)", "setting": "[2]; + comp.", "value": 0.48, "unit": "ml/ccm"}, {"measurement": "k1", "setting": "[2]; + comp.", "value": 0.10, "unit": "ml/ccm/min"}, {"measurement": "k2", "setting": "[2]; + comp.", "value": 0.32, "unit": "min⁻¹"}, {"measurement": "k3", "setting": "[2]; + comp.", "value": 0.04, "unit": "min⁻¹"}, {"measurement": "k4", "setting": "[2]; + comp.", "value": 0.07, "unit": "min⁻¹"}, {"measurement": "vB (vascular fraction)", "setting": "[2]; + comp.", "value": 0.04, "unit": "l/l"}, {"measurement": "Flux", "setting": "[2]; − comp.", "value": 0.03, "unit": "ml/ccm/min"}, {"measurement": "Vs (ratio of specific binding concentration to total parent at equilibrium)", "setting": "[2]; − comp.", "value": 2.31, "unit": "ml/ccm"}, {"measurement": "Vt (total distribution volume)", "setting": "[2]; − comp.", "value": 0.87, "unit": "ml/ccm"}, {"measurement": "k1", "setting": "[2]; − comp.", "value": 0.07, "unit": "ml/ccm/min"}, {"measurement": "k2", "setting": "[2]; − comp.", "value": 0.13, "unit": "min⁻¹"}, {"measurement": "k3", "setting": "[2]; − comp.", "value": 0.1, "unit": "min⁻¹"}, {"measurement": "k4", "setting": "[2]; − comp.", "value": 0.02, "unit": "min⁻¹"}, {"measurement": "vB (vascular fraction)", "setting": "[2]; − comp.", "value": 0.04, "unit": "l/l"}, {"measurement": "activity remaining after 24 h of incubation relative to initial radioactivity", "setting": "[3]; 24 h incubation, FAPI-01 compared to binding after 10 min", "value": 34, "unit": "%"}, {"measurement": "internalized proportion of uptake", "setting": "[3]; Lu-177 labeled, after 60 min", "value": 96, "unit": "%"}, {"measurement": "uptake into FAP-α expressing cells", "setting": "[3]; Lu-177 labeled, after 60 min", "value": "20.15±1.74", "unit": "% ID"}, {"measurement": "highest enrichment within the FAP-expressing tumor", "setting": "[4]; 177Lu labeled, after 1 h", "value": 4.5, "unit": "% ID/g"}, {"measurement": "Tumor uptake 1 h", "setting": "[4]; HT-1080-FAP tumor bearing nude mice, 1 h, mean ± SD, n = 3", "value": "4.5 ± 0.82", "unit": "% ID/g"}, {"measurement": "Tumor uptake 4 h", "setting": "[4]; HT-1080-FAP tumor bearing nude mice, 4 h, mean ± SD, n = 3", "value": "4.0 ± 0.56", "unit": "% ID/g"}, {"measurement": "Tumor uptake 24 h", "setting": "[4]; HT-1080-FAP tumor bearing nude mice, 24 h, mean ± SD, n = 3", "value": "1.12 ± 0.13", "unit": "% ID/g"}, {"measurement": "Blood uptake", "setting": "[4]; [7]", "value": "1.20 ± 0.178", "unit": "% ID/g"}, {"measurement": "Brain uptake", "setting": "[4]; [7]", "value": "0.06 ± 0.006", "unit": "% ID/g"}, {"measurement": "Heart uptake", "setting": "[4]; [7]", "value": "0.56 ± 0.085", "unit": "% ID/g"}, {"measurement": "Intestines uptake", "setting": "[4]; [7]", "value": "0.31 ± 0.046", "unit": "% ID/g"}, {"measurement": "Kidneys uptake", "setting": "[4]; [7]", "value": "1.60 ± 0.075", "unit": "% ID/g"}, {"measurement": "Liver uptake", "setting": "[4]; [7]", "value": "0.45 ± 0.074", "unit": "% ID/g"}, {"measurement": "Lungs uptake", "setting": "[4]; [7]", "value": "1.02 ± 0.152", "unit": "% ID/g"}, {"measurement": "Muscle uptake", "setting": "[4]; [7]", "value": "1.17 ± 0.332", "unit": "% ID/g"}, {"measurement": "Spleen uptake", "setting": "[4]; [7]", "value": "0.38 ± 0.051", "unit": "% ID/g"}, {"measurement": "Tumor uptake", "setting": "[4]; [7]", "value": "4.51 ± 0.816", "unit": "% ID/g"}, {"measurement": "Blood uptake", "setting": "[5]", "value": "0.83 ± 0.127", "unit": "% ID/g"}, {"measurement": "Brain uptake", "setting": "[5]", "value": "0.05 ± 0.010", "unit": "% ID/g"}, {"measurement": "Heart uptake", "setting": "[5]", "value": "0.37 ± 0.031", "unit": "% ID/g"}, {"measurement": "Intestines uptake", "setting": "[5]", "value": "0.30 ± 0.064", "unit": "% ID/g"}, {"measurement": "Kidneys uptake", "setting": "[5]", "value": "1.45 ± 0.106", "unit": "% ID/g"}, {"measurement": "Liver uptake", "setting": "[5]", "value": "0.36 ± 0.015", "unit": "% ID/g"}, {"measurement": "Lungs uptake", "setting": "[5]", "value": "0.72 ± 0.021", "unit": "% ID/g"}, {"measurement": "Muscle uptake", "setting": "[5]", "value": "0.94 ± 0.168", "unit": "% ID/g"}, {"measurement": "Spleen uptake", "setting": "[5]", "value": "0.25 ± 0.015", "unit": "% ID/g"}, {"measurement": "Tumor uptake", "setting": "[5]", "value": "3.82 ± 0.390", "unit": "% ID/g"}, {"measurement": "retention of the originally accumulated radioactivity (efflux)", "setting": "[6]", "value": 12, "unit": "%"}]}
